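Following 48 hours of exposure in 96-well plates, responses at five concentrations were used to interpolate endpoints linearly. GI50: concentration for 50% inhibition of growth.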 Calls of active or inactive are those of the source. Cut-off read from the data, not from the text of the source: active = GI50 up to about 1.1 µM and inactive = higher.
What was measured:
Test in all cases: NCI anticancer screen, dose series, 48 h
[1] = test system: 786-0
[2] = test system: A498
[3] = test system: A549
[4] = test system: ACHN
[5] = test system: CAKI-1
[6] = test system: CCRF-CEM
[7] = test system: COLO 205
[8] = test system: DLD-1
[9] = test system: DMS-273
[10] = test system: EKVX
[11] = test system: HCC 2998
[12] = test system: HCT-116
[13] = test system: HCT-15
[14] = test system: HL-60
[15] = test system: HOP-18
[16] = test system: HOP-62
[17] = test system: HOP-92
[18] = test system: HT-29
[19] = test system: IGROV-1
[20] = test system: K562
[21] = test system: KM-20L2
[22] = test system: KM12
[23] = test system: LOX IMVI
[24] = test system: LXFL 529
[25] = test system: M14
[26] = test system: M19-MEL
[27] = test system: MOLT-4
[28] = test system: Malme-3M
[29] = test system: NCI-H23
[30] = test system: NCI-H460
[31] = test system: NCI-H522
[32] = test system: OVCAR-3
[33] = test system: OVCAR-4
[34] = test system: OVCAR-5
[35] = test system: OVCAR-8
[36] = test system: RPMI-8226
[37] = test system: RXF 393
[38] = test system: SF-268
[39] = test system: SF-295
[40] = test system: SK-MEL-28
[41] = test system: SK-MEL-2
[42] = test system: SK-MEL-5
[43] = test system: SK-OV-3
[44] = test system: SN12C
[45] = test system: SNB-19
[46] = test system: SNB-75
[47] = test system: SR
[48] = test system: SW-620
[49] = test system: TK-10
[50] = test system: U-251
[51] = test system: UACC-257
[52] = test system: UACC-62
[53] = test system: UO-31
[54] = test system: XF498
[55] = test system: NCI-H226
[56] = test system: SF-539
[57] = test system: SNB-78
[58] = test system: DMS-114

Structure (SMILES): CCOC(=O)N1C=NC23C(c4ccccc4)C(c4ccccc4)C12C(=O)N(C)C(=O)N3C (centres undefined)
- GI50 [1]: > 100 µM (inactive)
- GI50 [2]: > 100 µM (inactive)
- GI50 [3]: > 100 µM (inactive)
- GI50 [4]: > 100 µM (inactive)
- GI50 [5]: > 100 µM (inactive)
- GI50 [6]: > 100 µM (inactive)
- GI50 [7]: > 100 µM (inactive)
- GI50 [8]: > 100 µM (inactive)
- GI50 [9]: > 100 µM (inactive)
- GI50 [10]: > 100 µM (inactive)
- GI50 [11]: > 100 µM (inactive)
- GI50 [12]: > 100 µM (inactive)
- GI50 [13]: > 100 µM
- GI50 [14]: 56.1 µM (inactive)
- GI50 [15]: 1.52 µM (inactive)
- GI50 [16]: > 100 µM (inactive)
- GI50 [17]: > 100 µM (inactive)
- GI50 [18]: > 100 µM (inactive)
- GI50 [19]: > 100 µM (inactive)
- GI50 [20]: > 100 µM (inactive)
- GI50 [21]: > 100 µM (inactive)
- GI50 [22]: > 100 µM (inactive)
- GI50 [23]: > 100 µM (inactive)
- GI50 [24]: > 100 µM (inactive)
- GI50 [25]: > 100 µM (inactive)
- GI50 [26]: > 100 µM (inactive)
- GI50 [27]: > 100 µM (inactive)
- GI50 [28]: > 100 µM (inactive)
- GI50 [29]: > 100 µM (inactive)
- GI50 [30]: > 100 µM (inactive)
- GI50 [31]: > 100 µM (inactive)
- GI50 [32]: > 100 µM (inactive)
- GI50 [33]: > 100 µM (inactive)
- GI50 [34]: > 100 µM (inactive)
- GI50 [35]: > 100 µM (inactive)
- GI50 [36]: 44.2 µM (inactive)
- GI50 [37]: 16.3 µM (inactive)
- GI50 [38]: > 100 µM (inactive)
- GI50 [39]: > 100 µM (inactive)
- GI50 [40]: > 100 µM (inactive)
- GI50 [41]: > 100 µM (inactive)
- GI50 [42]: > 100 µM (inactive)
- GI50 [43]: > 100 µM (inactive)
- GI50 [44]: > 100 µM (inactive)
- GI50 [45]: > 100 µM (inactive)
- GI50 [46]: > 100 µM (inactive)
- GI50 [47]: > 100 µM (inactive)
- GI50 [48]: > 100 µM (inactive)
- GI50 [49]: > 100 µM (inactive)
- GI50 [50]: > 100 µM (inactive)
- GI50 [51]: > 100 µM (inactive)
- GI50 [52]: > 100 µM (inactive)
- GI50 [53]: 77.1 µM (inactive)
- GI50 [54]: > 100 µM (inactive)

Structure (SMILES): CCOc1ccc2[nH]c3c(C)c4cc[n+](C)cc4c(C)c3c2c1
- GI50 [1]: 0.255 µM (active)
- GI50 [3]: 1.95 µM (inactive)
- GI50 [6]: 2.88 µM (inactive)
- GI50 [8]: 1.66 µM (inactive)
- GI50 [10]: 4.24 µM (inactive)
- GI50 [11]: 3.27 µM (inactive)
- GI50 [12]: 3 µM (inactive)
- GI50 [14]: 7.85 µM (inactive)
- GI50 [15]: 4.03 µM (inactive)
- GI50 [17]: 2.5 µM (inactive)
- GI50 [18]: 3.99 µM (inactive)
- GI50 [19]: 2.25 µM (inactive)
- GI50 [20]: 2.1 µM (inactive)
- GI50 [21]: 4.95 µM (inactive)
- GI50 [22]: 2.4 µM (inactive)
- GI50 [24]: 0.348 µM (active)
- GI50 [25]: 8.41 µM (inactive)
- GI50 [55]: 0.451 µM (active)
- GI50 [29]: 0.838 µM (active)
- GI50 [30]: 1.89 µM (inactive)
- GI50 [31]: 1.11 µM (active)
- GI50 [32]: 3.93 µM (inactive)
- GI50 [33]: 3.61 µM (inactive)
- GI50 [36]: 18.3 µM (inactive)
- GI50 [37]: 8.71 µM (inactive)
- GI50 [38]: 0.271 µM (active)
- GI50 [39]: 0.25 µM (active)
- GI50 [56]: 0.65 µM (active)
- GI50 [40]: 3.1 µM (inactive)
- GI50 [41]: 2.42 µM (inactive)
- GI50 [42]: 1.55 µM (inactive)
- GI50 [43]: 2.92 µM (inactive)
- GI50 [44]: 0.279 µM (active)
- GI50 [57]: 0.662 µM (active)
- GI50 [48]: 2.05 µM (inactive)
- GI50 [50]: 0.228 µM (active)
- GI50 [51]: 4.25 µM (inactive)
- GI50 [52]: 2.77 µM (inactive)
- GI50 [53]: 20.9 µM (inactive)

Structure (SMILES): O=c1c2ccccc2nc(-c2ccccc2)n1NC(=S)Nc1ccc(Cl)cc1
- GI50 [1]: > 100 µM (inactive)
- GI50 [2]: > 100 µM (inactive)
- GI50 [3]: 59.7 µM (inactive)
- GI50 [4]: 77.1 µM (inactive)
- GI50 [5]: > 100 µM (inactive)
- GI50 [6]: 58.3 µM (inactive)
- GI50 [7]: > 100 µM (inactive)
- GI50 [8]: > 100 µM (inactive)
- GI50 [58]: 34.4 µM (inactive)
- GI50 [9]: > 100 µM (inactive)
- GI50 [12]: 55.1 µM (inactive)
- GI50 [13]: > 100 µM
- GI50 [14]: 56.9 µM (inactive)
- GI50 [15]: > 100 µM (inactive)
- GI50 [16]: > 100 µM (inactive)
- GI50 [17]: > 100 µM (inactive)
- GI50 [18]: 53.8 µM (inactive)
- GI50 [19]: > 100 µM (inactive)
- GI50 [20]: 48.4 µM (inactive)
- GI50 [22]: 85.9 µM (inactive)
- GI50 [23]: > 100 µM (inactive)
- GI50 [24]: 48.6 µM (inactive)
- GI50 [25]: > 100 µM (inactive)
- GI50 [26]: 52.6 µM (inactive)
- GI50 [27]: 69 µM (inactive)
- GI50 [28]: > 100 µM (inactive)
- GI50 [55]: 96.6 µM (inactive)
- GI50 [29]: 53.6 µM (inactive)
- GI50 [30]: 59.4 µM (inactive)
- GI50 [31]: 34.7 µM (inactive)
- GI50 [33]: 74.3 µM (inactive)
- GI50 [34]: > 100 µM (inactive)
- GI50 [35]: > 100 µM (inactive)
- GI50 [36]: 69.7 µM (inactive)
- GI50 [37]: 41.9 µM (inactive)
- GI50 [38]: > 100 µM (inactive)
- GI50 [39]: > 100 µM (inactive)
- GI50 [56]: > 100 µM (inactive)
- GI50 [40]: 24.1 µM (inactive)
- GI50 [41]: > 100 µM (inactive)
- GI50 [42]: 36.9 µM (inactive)
- GI50 [43]: > 100 µM (inactive)
- GI50 [44]: > 100 µM (inactive)
- GI50 [46]: 59.4 µM (inactive)
- GI50 [47]: 65.9 µM (inactive)
- GI50 [48]: > 100 µM (inactive)
- GI50 [49]: > 100 µM (inactive)
- GI50 [50]: > 100 µM (inactive)
- GI50 [51]: 75.9 µM (inactive)
- GI50 [52]: 55.2 µM (inactive)
- GI50 [53]: 61.5 µM (inactive)

Source: ChEMBL document CHEMBL1201862, “PubChem BioAssay data set” (2004)
